In ChEMBL document CHEMBL5223092, “Antibacterial activities of plant-derived xanthones” (RSC Med Chem, 2022) one finds MIC and logP data, which are given here for eight molecules.

The test system of data set [1] is Micrococcus luteus. Kind of data set: Antibacterial activity against Micrococcus luteus ATCC 9341 incubated for 20 hrs by Mueller-Hinton broth based agar based dilution method. Type of data set: functional.
In data set [2] the test system is Enterococcus faecalis. Briefly: Antibacterial activity against Enterococcus faecalis JCM 7783 incubated for 20 hrs by Mueller-Hinton broth based agar based dilution method. It counts as functional.
Data set [3] relates to Bacillus subtilis. Kind of data set: Antibacterial activity against Bacillus subtilis PCI 219 incubated for 20 hrs by Mueller-Hinton broth based agar based dilution method. Type of data set: functional.
Data set [4] deals with Enterococcus faecalis. Kind of data set: Antibacterial activity against Enterococcus faecalis JU 1782 incubated for 20 hrs by Mueller-Hinton broth based agar based dilution method. Type of data set: functional.
For data set [5], the system named is Staphylococcus aureus. Kind of data set: Antibacterial activity against methicillin sensitive Staphylococcus aureus JCM 2874 incubated for 20 hrs by Mueller-Hinton broth based agar based dilution method. Type of data set: functional.
The subject of data set [6] is Staphylococcus aureus. Briefly: Antibacterial activity against methicillin resistant Staphylococcus aureus incubated for 20 hrs by Mueller-Hinton broth based agar based dilution method. Type of data set: functional.
For data set [7], the system named is Enterococcus faecalis. Kind of data set: Antibacterial activity against Enterococcus faecalis JU 1856 incubated for 20 hrs by Mueller-Hinton broth based agar based dilution method. It counts as functional.
In data set [8] the test system is Bacillus cereus. Kind of data set: Antibacterial activity against Bacillus cereus TISTR 688 by Mueller-Hinton broth based two-fold serial dilution method. It counts as functional.
In data set [9] the test system is Staphylococcus aureus. Kind of data set: Antibacterial activity against methicillin resistant Staphylococcus aureus SK1 by Mueller-Hinton broth based two-fold serial dilution method. Type of data set: functional.
The test system of data set [10] is Staphylococcus epidermidis. Kind of data set: Antibacterial activity against Staphylococcus epidermis ATCC 12228 by Mueller-Hinton broth based two-fold serial dilution method. It counts as functional.
For data set [11], the system named is Salmonella typhimurium. Briefly: Antibacterial activity against Salmonella typhimurium TISTR 292 by Mueller-Hinton broth based two-fold serial dilution method. Type of data set: functional, Salmonella enterica subsp. enterica serovar Typhimurium. The following applies: Salmonella enterica.
The test system of data set [12] is Bacillus subtilis. Kind of data set: Antibacterial activity against Bacillus subtilis TISTR 008 by Mueller-Hinton broth based two-fold serial dilution method. It counts as functional.
Data set [13] relates to Micrococcus luteus. Briefly: Antibacterial activity against Micrococcus luteus TISTR 884 by Mueller-Hinton broth based two-fold serial dilution method. Type of data set: functional.
Data set [14] relates to Staphylococcus aureus. Kind of data set: Antibacterial activity against Staphylococcus aureus TISTR 1466 by Mueller-Hinton broth based two-fold serial dilution method. It counts as functional.
Data set [15] is described as follows: Lipophilicity, logP of the compound. Type of data set: physicochemical. The following applies: octanol/water.
In data set [16] the test system is Salmonella typhimurium. Kind of data set: Antibacterial activity against Salmonella typhimurium TISTR 292 incubated for 16 to 18 hrs by Mueller-Hinton broth based two-fold serial dilution method. Type of data set: functional, Salmonella enterica subsp. enterica serovar Typhimurium. The conditions noted are these: Salmonella enterica, time 16-18 hrs.
Data set [17] relates to Bacillus cereus. Kind of data set: Antibacterial activity against Bacillus cereus TISTR 688 incubated for 16 to 18 hrs by Mueller-Hinton broth based two-fold serial dilution method. Type of data set: functional. The following applies: time 16-18 hrs.
Data set [18] concerns Staphylococcus epidermidis. Briefly: Antibacterial activity against Staphylococcus epidermidis ATCC 12228 incubated for 16 to 18 hrs by Mueller-Hinton broth based two-fold serial dilution method.
Data set [19] relates to Vibrio harveyi. Briefly: Antibacterial activity against Vibrio harveyi 1.8690 incubated for 24 hrs by oxford cup method. It counts as functional.
The test system of data set [20] is Vibrio harveyi. Kind of data set: Antibacterial activity against Vibrio harveyi SZ-1 incubated for 24 hrs by oxford cup method. Type of data set: functional.
In data set [21] the test system is Escherichia coli. Briefly: Antibacterial activity against Escherichia coli ATCC 25922 by Mueller-Hinton broth based two-fold serial dilution method. Type of data set: functional.
Data set [22] relates to Listeria monocytogenes. Kind of data set: Antibacterial activity against Listeria monocytogenes DMST 17303 by Mueller-Hinton broth based two-fold serial dilution method. It counts as functional.
In data set [23] the test system is Micrococcus luteus. Kind of data set: Antibacterial activity against Micrococcus luteus. Type of data set: functional.
For data set [24], the system named is Staphylococcus aureus. Briefly: Antibacterial activity against methicillin resistant Staphylococcus aureus SK1 incubated for 16 to 18 hrs by agar microdilution method. Type of data set: functional. The following applies: time 16-18 hrs.
The subject of data set [25] is Staphylococcus aureus. Briefly: Antibacterial activity against Staphylococcus aureus TISTR 517 by Mueller-Hinton broth based two-fold serial dilution method. Type of data set: functional.
Data set [26] has as its system Bacillus subtilis. Kind of data set: Antibacterial activity against Bacillus subtilis. It counts as functional.
Data set [27] relates to Staphylococcus epidermidis. Briefly: Antibacterial activity against Staphylococcus epidermidis DMST 15505 by Mueller-Hinton broth based two-fold serial dilution method. Type of data set: functional.
The test system of data set [28] is Bacillus cereus. Kind of data set: Antibacterial activity against Bacillus cereus. Type of data set: functional.
Data set [29] relates to Streptococcus pyogenes. Kind of data set: Antibacterial activity against Streptococcus pyogenes DMST 17020 by Mueller-Hinton broth based two-fold serial dilution method. Type of data set: functional.
Data set [30] concerns Staphylococcus aureus. Briefly: Antibacterial activity against Staphylococcus aureus NIHJ 209p. It counts as functional.
Data set [31] deals with Vibrio vulnificus. Kind of data set: Antibacterial activity against Vibrio vulnificus MCCC E1758. Type of data set: functional.
In data set [32] the test system is Vibrio campbellii. Briefly: Antibacterial activity against Vibrio campbellii MCCC E333. Type of data set: functional.
Data set [33] has as its system Escherichia coli. Briefly: Antibacterial activity against Escherichia coli NIHJ K 12. It counts as functional.
Data set [34] has as its system Staphylococcus aureus. Briefly: Antibacterial activity against methicillin resistant Staphylococcus aureus by liquid dilution method. Type of data set: functional.
Data set [35] deals with Vibrio rotiferianus. Briefly: Antibacterial activity against Vibrio rotiferianus MCCC E385. It counts as functional.

≈ marks a conversion by molar mass, not a printed value.

For orientation: MIC means the smallest concentration in the dilution series that meets the test's criterion for growth inhibition. A lower MIC goes with greater potency. As usually defined, the logP is the decadic logarithm of the partition coefficient of the neutral form, usually between octanol and water. Lower therefore signals a more hydrophilic compound.

For `CC(C)=CCc1c(O)cc(O)c2c(=O)c3c(CC=C(C)C)c(O)ccc3oc12` [GERONTOXANTHONE H], the MIC in data set [1], in [2], in data set [3], in data set [4], in data set [5] and in data set [6] was 1.56 µg/mL (≈ 4.1 µM) throughout. The molecule further gave an MIC in data set [7] of 1.56 µg/mL (≈ 4.1 µM).
Consider `COc1c(O)cc2oc3cc(O)c(CC=C(C)C)c(O)c3c(=O)c2c1C/C=C(\C)CCC=C(C)C` [COWANIN], for which the minimum inhibitory concentration (MIC) in data set [8] turned out to be 32 µg/mL (≈ 66.9 µM); in data set [9], 2 µg/mL (≈ 4.18 µM); in [10], 2 µg/mL (≈ 4.18 µM); in data set [11], 64 µg/mL (≈ 134 µM); in data set [12], 4 µg/mL (≈ 8.36 µM); in [13] it was 4 µg/mL (≈ 8.36 µM). The MIC in [14] was 32 µg/mL (≈ 66.9 µM).
Take `COc1cc2c(=O)c3c(O)cc(O)cc3oc2cc1O` [ALLOATHYRIOL]: the lipophilicity (logP) in data set [15] is 1.74. The molecule also showed an MIC in [16] of 4 µg/mL (≈ 14.6 µM).
For `COc1cc2c(=O)c3c(O)cccc3oc2c(O)c1OC`, the MIC in [17] and in [18] was 16 µg/mL (≈ 55.5 µM) in each case. Moreover, in [15], the logP was 2.09.
Turning to `COc1cc(O)cc2c1C(=O)c1c(O)cc(C)cc1C2=O` [QUESTIN], the minimal inhibitory concentration (MIC) in data set [19] and in [20] was under 50 µg/mL each time.
As to `COc1c(O)cc2oc3cc4c(c(O)c3c(=O)c2c1CC=C(C)C)CC(C(C)(C)O)O4` (centres undefined), the MIC in [21] was determined as 25 µg/mL (≈ 58.6 µM); in [22], 0.78 µg/mL (≈ 1.83 µM); in data set [23], 12.5 µg/mL (≈ 29.3 µM); in [24], 4 µg/mL (≈ 9.38 µM); in data set [25], 12.5 µg/mL (≈ 29.3 µM); in data set [26], 2 µg/mL (≈ 4.69 µM). The MIC in [27] came out at 25 µg/mL (≈ 58.6 µM); in data set [28], 8 µg/mL (≈ 18.8 µM); in data set [29] it was 3.13 µg/mL (≈ 7.34 µM).
`CC(C)=CCc1c(O)cc2oc3c(CC=C(C)C)c(O)c(O)c(CC=C(C)C)c3c(=O)c2c1O` [GARCINONE E]: the MIC in data set [30] came out at 12.5 µg/mL (≈ 26.9 µM); in data set [31], 15.6 µg/mL (≈ 33.6 µM); in data set [32], 31.2 µg/mL (≈ 67.2 µM); in data set [33] it was 25 µg/mL (≈ 53.8 µM); in data set [34], 25 µg/mL (≈ 53.8 µM); in data set [35] it was 15.6 µg/mL (≈ 33.6 µM).
Turning to `C=CC(C)(C)c1c(O)cc2oc3c(O)c4c(cc3c(=O)c2c1O)C=CC(C)(C)O4` [GERONTOXANTHONE B], the minimum inhibitory concentration (MIC) in data set [1] was 12.5 µg/mL (≈ 31.7 µM); in data set [3], over 25 µg/mL; in data set [6], 25 µg/mL (≈ 63.4 µM).
